{"source": "patent US5559025A", "about": "(priority 1991, dated 1996)", "assay_type_in_all_cases": "biochemical", "key": {"HRV2 2A proteinase [1]": {"biological_target": "T1, HRV2 2A proteinase (Human rhinovirus 2, UniProt P04936)"}, "HRV2 2A proteinase [2]": {"biological_target": "T1, HRV2 2A proteinase", "details": "for cleavability by HRV2 2A (in words): trans-cleavage assay, 34° C., up to 32 minutes"}, "HRV2 2A proteinase [3]": {"biological_target": "T1, HRV2 2A proteinase", "assay": "Competition of non-cleavable or slightly cleavable peptides with P89 cleaving"}, "HRV2 2A proteinase [4]": {"biological_target": "T1, HRV2 2A proteinase", "assay": "Km determination with peptide substrate P89 (trans-cleavage assays)", "details": "peptide substrate P89, 15° C., 50 to 500 μmol/l, repeated three times with various 2A preparations", "experimental": "[…] For competitive or inhibitory studies, an additional 5 μl of solution containing the substance for competition or inhibition are added. The reaction is stopped by adding an equal volume of a 0.5M HClO4 solution. The samples are cooled to 0° C. for 10 minutes or frozen overnight at -20° C. After centrifugation (Eppendorf centrifuge, 10 min, 4° C.) an equal volume of a 1.4M K2 HPO4 solution is added. The samples are left to stand for 5 minutes at ambient temperature and the precipitate is separated off by centrifuging. […] The reaction products are detected by UV absorption at 214 and 280 nm. The course of the reaction over a period of time (% cleavage of the peptide substrate) is determined by \"reverse phase\" HPLC. The area of the newly formed peptide peak corresponding to the quantity of the carboxy- and amino terminal cleavage products is determined for each case and compared with the area of the uncleaved P89. The cleavage products are determined either by comigration with the corresponding reference peptides and amino acid analysis or by protein sequencing (Hunkapillar and Hood, 1983, loc. cit.). […]\nIn order to identify the Km value for the Wild type substrate P89 a set of trans-cleavage assays are carried out at 15° C. with various P89 substrate concentrations (between 50 and 500 μmol/l). […] For each substrate concentration the reaction speed was determined (% cleavage of P89). […]"}, "[5]": {"details": "inhibitor added before start of reaction, repeated three times"}}, "note": "“Also recorded” adds a separate entry of the source. Read-outs that look alike come from different tables or passages of the source. *1 amine or outer side, *2 acyl side, *3 side chain or, on linkers, in order; H or OH if unused. Where a SMILES comes first, the peptide text is derived from it. CO = O=C([*:1])[*:2]"}
{"compound": "O[C@H](CS)[C@H](O)CS", "note": "(racemic) [DTT, Dithiothreitol]", "values": [{"measurement": "effect on the activity of 2A relative to peptide P89", "setting": "HRV2 2A proteinase [1]; [5]", "value": "no effect"}]}
{"compound": "c1cnc2c(c1)ccc1cccnc12", "note": "[1,10-phenanthrolene]", "values": [{"measurement": "effect on the activity of 2A relative to peptide P89", "setting": "HRV2 2A proteinase [1]; [5]", "value": "a certain inhibiting effect at higher concentrations"}]}
{"compound": "O=c1oc(Cl)c(Cl)c2ccccc12", "note": "[3,4-dichloroisocumarin]", "values": [{"measurement": "effect on the activity of 2A relative to peptide P89", "setting": "HRV2 2A proteinase [1]; [5]", "value": "no activity"}]}
{"compound": "N=C(N)c1ccc(CS(=O)(=O)F)cc1", "note": "[APMSF, 4-(Amidinophenyl)methanesulphonylfluoride]", "values": [{"measurement": "effect on the activity of 2A relative to peptide P89", "setting": "HRV2 2A proteinase [1]; [5]", "value": "no activity"}]}
{"compound": "CC(C)CC(NC(=O)C1OC1C(=O)O)C(=O)NCCCCNC(=N)N", "note": "(stereo not drawn) [E-64]", "values": [{"measurement": "effect on the activity of 2A relative to peptide P89", "setting": "HRV2 2A proteinase [1]; [5]", "value": "no effect"}]}
{"compound": "O=C(O)CN(CCN(CC(=O)O)CC(=O)O)CC(=O)O", "note": "[EDTA]", "values": [{"measurement": "effect on the activity of 2A relative to peptide P89", "setting": "HRV2 2A proteinase [1]", "value": "a certain inhibiting effect at higher concentrations"}]}
{"compound": "CC(=O)N[C@@H](CC(C)C)C(=O)N[C@@H](CC(C)C)C(=O)N[C@H](C=O)CCCNC(=N)N", "note": "[Leupeptine]", "values": [{"measurement": "effect on the activity of 2A relative to peptide P89", "setting": "HRV2 2A proteinase [1]; [5]", "value": "ineffectiveness"}]}
{"compound": "CCN1C(=O)C=CC1=O", "note": "[N-ethylmaleimide]", "values": [{"measurement": "effect on the activity of 2A relative to peptide P89", "setting": "HRV2 2A proteinase [1]; [5]", "value": "strongly inhibit"}]}
{"compound": "Cc1ccc(S(=O)(=O)N[C@@H](CCCCN)C(=O)CCl)cc1", "note": "[TLCK, Tosyllysylchloromethylketone]", "values": [{"measurement": "effect on the activity of 2A relative to peptide P89", "setting": "HRV2 2A proteinase [1]; [5]", "value": "only effective at higher concentrations"}]}
{"compound": "Cc1ccc(S(=O)(=O)N[C@@H](Cc2ccccc2)C(=O)CCl)cc1", "note": "[TPCK, Tosylphenylalanylchloromethylketone]", "values": [{"measurement": "effect on the activity of 2A relative to peptide P89", "setting": "HRV2 2A proteinase [1]; [5]", "value": "only effective at higher concentrations"}]}
{"compound": "CC(C)[C@H](NC(=O)[C@H](CCCNC(=N)N)NC(=O)N[C@@H](Cc1ccccc1)C(=O)O)C(=O)N[C@H](C=O)CCCNC(=N)N", "note": "[antipain] ({Phe-CO}-Arg-Val-Arg-aldehyde)", "values": [{"measurement": "effect on the activity of 2A relative to peptide P89", "setting": "HRV2 2A proteinase [1]; [5]", "value": "highly effective"}]}
{"compound": "N[C@@H](CS)C(=O)O", "note": "[cysteine]", "values": [{"measurement": "effect on the activity of 2A relative to peptide P89", "setting": "HRV2 2A proteinase [1]; [5]", "value": "no effect"}]}
{"compound": "CC(C)C[C@H](NC(=O)N[C@H](C(=O)N[C@@H](CCC(N)=O)C(=O)N[C@@H](C)C=O)[C@@H]1CCNC(=N)N1)C(=O)O", "note": "[elastatinal]", "values": [{"measurement": "effect on the activity of 2A relative to peptide P89", "setting": "HRV2 2A proteinase [1]; [5]", "value": "highly effective"}]}
{"compound": "NC(=O)CI", "note": "[iodacetamide]", "values": [{"measurement": "effect on the activity of 2A relative to peptide P89", "setting": "HRV2 2A proteinase [1]; [5]", "value": "strongly inhibit"}]}
{"compound": "Ac-IITTAGPSDM-NH2 [P145, IITTAGPSDM]", "values": [{"measurement": "cleavability by HRV2 2A (in words)", "setting": "HRV2 2A proteinase [2]", "value": "cannot be cleaved"}, {"measurement": "ability to act as competitor/inhibitor of P89 cleaving", "setting": "HRV2 2A proteinase [3]", "value": "became competitive; also recorded: behaved competitively; also recorded: competitive inhibitors"}]}
{"compound": "Ac-ITTAGPSD-NH2 [WTD8, ITTAGPSD]", "values": [{"measurement": "cleavability by HRV2 2A (in words)", "setting": "HRV2 2A proteinase [2]", "value": "cannot be cleaved"}, {"measurement": "ability to act as competitor/inhibitor of P89 cleaving", "setting": "HRV2 2A proteinase [3]", "value": "became competitive; also recorded: behaved competitively; also recorded: competitive inhibitors"}]}
{"compound": "Ac-ITTAGPSDMYVH-NH2 [D]", "values": [{"measurement": "cleavability by HRV2 2A (in words)", "setting": "HRV2 2A proteinase [2]", "value": "fall in cleavability of one order of magnitude; also recorded: reduction in the cleavability by one order of magnitude"}]}
{"compound": "Ac-TRPIITTAG-NH2 [WTN9]", "values": [{"measurement": "% cleavage compared with P89", "setting": "HRV2 2A proteinase [2]", "value": 10, "unit": "%"}, {"measurement": "cleavability by HRV2 2A (in words)", "setting": "HRV2 2A proteinase [2]", "value": "sufficient for a cleavage"}]}
{"compound": "TRIITSAGPSDMYV [B4, Thr for Ser at position P2]", "values": [{"measurement": "ability to act as competitor/inhibitor of P89 cleaving", "setting": "HRV2 2A proteinase [3]", "value": "became competitive; also recorded: behaved competitively"}]}
{"compound": "TRPIITNAGPSDMYV [B8, Thr for Asn at position P2]", "values": [{"measurement": "ability to act as competitor/inhibitor of P89 cleaving", "setting": "HRV2 2A proteinase [3]", "value": "became competitive; also recorded: behaved competitively"}]}
{"compound": "TRPIITTNGPSDMYV [G5, Ala for Asn at position P1]", "values": [{"measurement": "cleavability by HRV2 2A (in words)", "setting": "HRV2 2A proteinase [2]", "value": "dramatically reduced cleavability"}, {"measurement": "ability to act as competitor/inhibitor of P89 cleaving", "setting": "HRV2 2A proteinase [3]", "value": "became competitive; also recorded: behaved competitively"}]}
{"compound": "TRPIITTPSDMYVH [AB2, deleted Wild type substrate, missing cleavage site]", "values": [{"measurement": "cleavability by HRV2 2A (in words)", "setting": "HRV2 2A proteinase [2]", "value": "No cleaving (nor any alternative) is observed; also recorded: No cleavage (nor any alternative cleavage) was observed; also recorded: cannot be cleaved"}, {"measurement": "ability to act as competitor/inhibitor of P89 cleaving", "setting": "HRV2 2A proteinase [3]", "value": "became competitive; also recorded: behaved competitively; also recorded: competitive inhibitors"}]}
{"compound": "acetyl-TRPIITTA*GPSDMYVH-NH2 (Ac-TRPIITTAGPSDMYVH-NH2; not fully specified (residue 8); printed as acetyl-TRPIITTA*GPSDMYVH-NH2) [P89, reference compound]", "values": [{"measurement": "cleavability by HRV2 2A (in words)", "setting": "HRV2 2A proteinase [2]", "value": "specifically cleaved"}, {"measurement": "Km", "setting": "HRV2 2A proteinase [4]", "value": 540, "unit": "µM"}]}
{"compound": "chymostatin", "values": [{"measurement": "effect on the activity of 2A relative to peptide P89", "setting": "HRV2 2A proteinase [1]; [5]", "value": "highly effective"}]}
